In patent US20080311681A1, “Antibody Binding Affinity Ligands” (priority 2004, published 2008):
Several values for one entry are separate records, joined by “and”; a condition that tells them apart may be missing. Equal values may be shown once.

Assays:
[1] = system: Fc fragment of an antibody; test: Incubation of bead-bound ligands with labelled Fc fragment, fluorescence on beads; type: binding; design: key: 0 indicates no fluorescence; 3 indicates the strongest level of fluorescence observed; settings: Oregon Green labelled Fc fragment, ligands on PEGA1900 beads, overnight at room temperature, arbitrary scale from 0 to 3, judged by eye
Method: The Fc fragment of an antibody was purified by dialysis in bicarbonate buffer (pH 8). The purified Fc fragment was treated with Oregon Green dye (50×) in DMF and kept for 1 hour at room temperature. The reaction was stopped by adding hydroxylamine (1.5 M, pH 8.5). The labelled polypeptide was purified by dialysis in bicarbonate buffer (pH 8).
The beads (10 mg) were washed with water (10×), bicarbonate buffer (pH 8, 10×), and were suspended in bicarbonate buffer for 1 h. The labelled polypeptide was then added to the resin and kept overnight at room temperature. The resin was washed with bicarbonate buffer (pH 8) and water.
The fluorescence on the beads was recorded by using a fluorescence microscope and a digital camera. A mercury lamp equipped with an emission filter provided excitation in the visible blue range. The images of the beads were recorded in water.
The below table lists the ligands and the corresponding apparent level of fluorescence determined by simply looking at the samples and comparing the apparent colour intensities between samples. On an arbitrary scale from 0 to 3, where 0 indicates no fluorescence and 3 indicates the strongest level of fluorescence observed.

[2] = system: monoclonal antibody; test: Chromatographic evaluation of ligands coupled on Fractogel (packed column, load, wash, elution, regeneration); type: binding; settings: not optimized operation conditions
Method: The new resins were assessed in packed mode. 1 mL of each resin was packed into an HR5 chromatography column (GE Healthcare) applying standard conditions.
Before loading the matrix with the monoclonal antibody, the column was equilibrated with 6 column volumes equilibration buffer containing 50 mM Na-phosphate (pH 7.0; cond. 9 mS cm^−1). After equilibration a monoclonal antibody solution in equilibration buffer (protein conc. 1.14 mg/mL) was loaded to the column. Subsequently, the column was washed with 6 column volumes of equilibration buffer and eluted with 6 column volumes of elution buffer 1 (25 mM sodium acetate pH 5.5; cond. 1.8 mS cm^−1) and 6 column volumes of elution buffer 2 (25 mM sodium acetate buffer pH 3.8; 0.5 mS cm^−1). The column was stored in […] ethanol. Afterwards, the matrix was regenerated with 40 mM phosphoric acid and 20 mM sodium hydroxid. The flow rate for equilibration, load and wash was 60 cm/h, elution and regeneration was performed at a flow rate of 30 cm/h.

| Substance | mark (apparent level of fluorescence) [1] | mAb in the flow through (in words) [2] | mark (apparent level of fluorescence) ([1]; listed as L1#16) |
| --- | --- | --- | --- |
| 3HBA-(L)Arg-(L)Pro-Gly [LII#44] | 2 | – | – |
| 3HBA-(L)Pro-(L)Arg-Gly [LII#45] | 2 | – | – |
| 4HBA-(L)Arg-(L)Pro-Gly [LII#46] | 2 | – | – |
| 4HBA-(L)Pro-(L)Arg-Gly [LII#47] | 2 | – | – |
| D-Lys-INA-(L)Arg-Gly [LI#41] | 2 | – | – |
| D-Phe-(L)Arg-(L)Arg-Gly [LI#16] | 2 | nothing was detected in the flow through | 3 |
| D-Pro-PPC-(L)Arg-Gly [L1#21] | 2 | – | – |
| DBHBA-(L)Arg-(L)Asn-Gly [LII#54] | 3 | – | – |
| DBHBA-(L)Asn-(L)Arg-Gly [LII#55] | 3 | only limited material is in the flow through | – |
| INA-(L)Arg-D-Lys-Gly [LI#44] | 2 | – | – |
| INA-D-Phe-PPC-Gly [LI#12] | 2 | – | – |
| L-Arg-(L)Arg-D-Lys-Gly [LI#27] | 2 | – | – |
| L-Arg-(L)Arg-D-Phe-Gly [LI#18] | 2 | – | – |
| L-Arg-D-Lys-(L)Arg-Gly [LI#26] | 2 | – | – |
| L-Arg-D-Phe-(L)Arg-Gly [LI#17] | 3 and 2 | – | – |
| L-Arg-D-Pro-PPC-Gly [LI#24] | 2 | – | – |
| PPC-(L)Arg-D-Pro-Gly [LI#20] | 2 | – | – |
| PPC-Ahx-PPC-Gly [LI#53] | 2 | – | – |
| PPC-Aib-PPC-Gly [LI#14] | 2 | – | – |
| PPC-D-Leu-PPC-Gly [L1#50] | 3 | – | – |
| PPC-D-Pro-(L)Arg-Gly [LI#19] | 3 | – | – |
| PPC-Nle-PPC-Gly [LI#56] | 2 | – | – |
| SAA-(L)Arg-(L)Pro-Gly [LII#48] | 3 | – | – |
| SAA-(L)Pro-(L)Arg-Gly [LII#49] | 3 | – | – |
